We go through 2 molecules from ChEMBL document CHEMBL1151449, “In vitro activity of DC-159a, a new broad-spectrum fluoroquinolone, compared with that of other agents against drug-susceptible and -resistant pneumococci” (2008).

Values after ≈ are worked out from the molar mass of the structure shown.

Holding throughout (format): functional
For assay [1], the system named is Streptococcus pneumoniae. The assay is described as follows: Antibacterial activity against penicillin-susceptible Streptococcus pneumoniae ATCC 49619 by agar dilution method. In general terms: Agar dilution tests growth on a series of plates holding different concentrations.
The subject of assay [2] is Streptococcus pneumoniae. Description: Antibacterial activity against penicillin-intermediate Streptococcus pneumoniae […] by agar dilution method.
Assay [3] has as its system Streptococcus pneumoniae. The assay is described as follows: Antibacterial activity against penicillin-resistant Streptococcus pneumoniae […] by agar dilution method.
Assay [4] deals with Streptococcus pneumoniae. Description: Antibacterial activity against azithromycin-susceptible Streptococcus pneumoniae ATCC 49619 by agar dilution method.
For assay [5], the system named is Streptococcus pneumoniae. Description: Antibacterial activity against azithromycin-resistant Streptococcus pneumoniae […] by agar dilution method.
Assay [6] concerns Streptococcus pneumoniae. Description: Antibacterial activity against quinolone-susceptible Streptococcus pneumoniae ATCC 49619 by agar dilution method.
The test system of assay [7] is Streptococcus pneumoniae. Description: Antibacterial activity against quinolone-resistant Streptococcus pneumoniae […] by agar dilution method.

By MIC50 is commonly meant an inhibitory concentration at the 50% level, which refers to growth in some studies and to a panel of isolates in others. Lower therefore signals higher susceptibility. Usually MIC90 stands for an inhibitory concentration at the 90% level, which refers to growth in some studies and to a panel of isolates in others. The low end stands for greater potency, the high end for weaker potency. Turning to `CC1(C)S[C@@H]2[C@H](NC(=O)Cc3ccccc3)C(=O)N2[C@H]1C(=O)O` [PENICILLIN G], the MIC50 in assay [1] is 0.03 µg/mL (≈ 0.0897 µM); in assay [2], 0.25 µg/mL (≈ 0.748 µM); in assay [3] it was 2 µg/mL (≈ 5.98 µM); in assay [4], 0.25 µg/mL (≈ 0.748 µM); in assay [5] it was 0.5 µg/mL (≈ 1.5 µM); in assay [6], 0.25 µg/mL (≈ 0.748 µM). Further, in assay [7], the MIC50 was found to be 0.5 µg/mL (≈ 1.5 µM). Also, the MIC90 in assay [1] is 0.06 µg/mL (≈ 0.179 µM); in assay [2] it was 1 µg/mL (≈ 2.99 µM); in assay [3] it was 4 µg/mL (≈ 12 µM); in assay [4] it was 2 µg/mL (≈ 5.98 µM); in assay [5], 4 µg/mL (≈ 12 µM); in assay [6], 4 µg/mL (≈ 12 µM). Further, in assay [7], the MIC90 is 4 µg/mL (≈ 12 µM).
For `CC[C@H]1OC(=O)[C@H](C)C(=O)[C@H](C)[C@@H](O[C@@H]2O[C@H](C)C[C@H](N(C)C)[C@H]2O)[C@](C)(OC)C[C@@H](C)C(=O)[C@H](C)[C@H]2N(CCCCn3cnc(-c4cccnc4)c3)C(=O)O[C@]12C` [TELITHROMYCIN], the MIC50 was determined as 0.03 µg/mL (≈ 0.0369 µM) in assay [1]; 0.03 µg/mL (≈ 0.0369 µM) in assay [2]; 0.06 µg/mL (≈ 0.0739 µM) in assay [3]; 0.016 µg/mL (≈ 0.0197 µM) in assay [4]; 0.06 µg/mL (≈ 0.0739 µM) in assay [5]; 0.03 µg/mL (≈ 0.0369 µM) in assay [6]. This molecule also returned an MIC50 in assay [7] of 0.016 µg/mL (≈ 0.0197 µM). In addition, the MIC90 in assay [1] is 0.12 µg/mL (≈ 0.148 µM); in assay [2] it was 0.12 µg/mL (≈ 0.148 µM); in assay [3], 0.25 µg/mL (≈ 0.308 µM); in assay [4], 0.03 µg/mL (≈ 0.0369 µM); in assay [5], 0.25 µg/mL (≈ 0.308 µM); in assay [6], 0.12 µg/mL (≈ 0.148 µM). This molecule also came in with an MIC90 in assay [7] of 0.25 µg/mL (≈ 0.308 µM).
